From patent publication US20060247311A1, “Methods for treating lower urinary tract disorders using alpha2delta subunit calcium channel modulators with smooth muscle modulators” (priority 2003, published 2006)
Values joined by “and” are separate entries in the source; they are usually repeats but may differ in a detail not shown here. Equal values may be shown once.

Assays:
[1] = test system: α2δ subunit of calcium channels; conditions: Bryans et al. (1999); cited from earlier work
[2] = preclinical and clinical studies, in contrast to gabapentin itself, cited from earlier work
[3] = test system: bladder instability and bladder capacity in SCI rats; conditions: SCI rats (Cheng et al., 1995); cited from earlier work
in vivo = conditions: female, rat, iv; for AUC(0-t): AUC0-t (Mean); for Cmax: Cmax (Mean); for Vd: Vz (Mean); for half-life: t1/2 (Mean)
[4] = test system: reduction in bladder capacity following continuous infusion of dilute acetic acid; assay: Dilute acetic acid model in cats (bladder capacity, voiding efficiency); type: in vivo; conditions: cat, gabapentin 30 mg/kg dose alone
Protocol: The objective of this study was to determine the ability of an α2δ subunit calcium channel modulator in combination with a smooth muscle modulator to reverse the reduction in bladder capacity seen following continuous infusion of dilute acetic acid in a cat model, a commonly used model of overactive bladder.
Alpha-chloralose anesthetized (50-100 mg/kg) normal female cats (2.5-3.5 kg; Harlan) were utilized in this study.
Animals were dosed by volume of injection=body weight in kg.
Female cats (2.5-3.5 kg; Harlan) had their food removed the night before the experiment. The following morning, the cat was anesthetized with isoflurane and prepped for surgery using aseptic technique. Polyethylene catheters were surgically placed to permit the measurement of bladder pressure, urethral pressure, arterial pressure, respiratory rate as well as for the delivery of drugs. Fine wire electrodes were implanted alongside the external urethral anal sphincter. Following surgery, the cats were slowly switched from the gas anesthetic isoflurane (2-3.5%) to alpha-chloralose (50-100 mg/kg). During control cystometry, saline was slowly infused into the bladder (0.5-1.0 m/min) for 1 hour. […] After assessing the cystometric variables under these baseline conditions, the effects of test drug(s) on micturition were determined via a 3-5 point dose response protocols. […]

[5] = test system: reduction in bladder capacity following continuous infusion of dilute acetic acid; assay: Dilute acetic acid model, acute anesthetized in vivo model (bladder capacity by cystometry); conditions: rat, isobologram construction, i.v.; both drugs alone and low-dose combinations
Excerpt: Urethane anesthetized (1.2 g/kg) normal female rats were utilized in this study.
Animal Preparation: Female rats (250-300 g body weight) were anesthetized with urethane (1.2 g/kg) and a saline-filled catheter (PE-50) was inserted into the jugular vein for intravenous drug administration. […] The abdominal cavity was moistened with saline and closed by covering with a thin plastic sheet in order to maintain access to the bladder for emptying purposes. Fine silver or stainless steel wire electrodes were inserted into the external urethral sphincter (EUS) percutaneously for electromyography (EMG).
Following 30 minutes of AA infusion, 3 vehicle injections were made at 20 minute intervals to determine vehicle effects, if any.
P<0.050 was considered significant.

[6] = 100 mg/kg, gabapentin in rat plasma after 100 mg/kg gabapentin i.v., alone (Gab) or with 3 mg/kg oxybutynin (Com), group Mean, outliers excluded
[7] = 100 mg/kg, gabapentin in rat plasma after 100 mg/kg gabapentin i.v., alone (Gab) or with 3 mg/kg oxybutynin (Com), group Mean
[8] = female, rat, in vivo, iv, 3 mg/kg

Compound: CC(C)C[C@H](CN)CC(=O)O [Pregabalin, (S)-(3-aminomethyl)-5-methylhexanoic acid]
- binding affinity for the α2δ subunit of calcium channels compared with gabapentin [1]: even higher binding affinity

Compound: CC(OC(=O)NCC1(CC(=O)O)CCCCC1)OC(=O)C(C)C (stereo not drawn) [XP13512]
- blood levels of gabapentin across a broad range of oral doses ([2]; oral): dose proportional blood levels of gabapentin
- absorption from the large intestine [2]: absorbed efficiently from the large intestine

Compound: COc1cc(CNC(=O)CCCC/C=C/C(C)C)ccc1O [capsaicin]
- bladder capacity to voiding [3]: not effect bladder capacity to voiding
- bladder instability [3]: reduce bladder instability

Compound: NCC1(CC(=O)O)CCCCC1 [gabapentin, 1-(aminomethyl) cyclohexaneacetic acid]
- AUC(0-t) (in vivo; [6]): 158 µg·h/mL
- AUC(0-inf) (in vivo; 100 mg/kg, AUC0-∞ (Mean), gabapentin in rat plasma after 100 mg/kg gabapentin i.v., alone (Gab) or with 3 mg/kg oxybutynin (Com), group Mean): 270 µg·h/mL
- AUC(0-inf) (in vivo; 100 mg/kg, AUC0-∞, gabapentin in rat plasma after 100 mg/kg gabapentin i.v., alone (Gab) or with 3 mg/kg oxybutynin (Com), individual animals): 325 µg·h/mL
- clearance (in vivo; 100 mg/kg, CL (Mean), gabapentin in rat plasma after 100 mg/kg gabapentin i.v., alone (Gab) or with 3 mg/kg oxybutynin (Com), group Mean): 6.52 mL/min/kg
- clearance (in vivo; 100 mg/kg, CL, gabapentin in rat plasma after 100 mg/kg gabapentin i.v., alone (Gab) or with 3 mg/kg oxybutynin (Com), individual animals): 5.12 mL/min/kg
- Cmax (in vivo; [6]): 98600 ng/mL
- Tmax (in vivo; 100 mg/kg, Tmax, gabapentin in rat plasma after 100 mg/kg gabapentin i.v., alone (Gab) or with 3 mg/kg oxybutynin (Com), individual animals): 15 min
- Vd (in vivo; [7]): 1.24 L/kg
- half-life (in vivo; [7]): 128 min
- effect on bladder capacity [4]: no significant effect
- AUC0-∞ (gabapentin in rat plasma after 100 mg/kg gabapentin i.v., alone (Gab) or with 3 mg/kg oxybutynin (Com), individual animals, listed as Gab): 1.37e+07 ng·min/mL and 2.19e+07 ng·min/mL and 1.44e+07 ng·min/mL
- common maximal effect / target value, return to % of saline control bladder capacity (individual responses) [5]: 31 % of saline control
- common maximal effect, return to % of saline control bladder capacity (group mean data) [5]: 43 % of saline control

Compound: CCN(CC)CC#CCOC(=O)C(O)(c1ccccc1)C1CCCCC1 (stereo not drawn) [oxybutynin, 4-diethylaminio-2-butynyl phenylcyclohexyglycolate]
- Tmax (in vivo; 3 mg/kg): 15 min
- AUC(0-t) (in vivo; 3 mg/kg): 0.335 µg·h/mL
- AUC(0-inf) (in vivo; 3 mg/kg, AUC0-∞ (Mean)): 0.41 µg·h/mL
- clearance (in vivo; 3 mg/kg, CL (Mean)): 134 mL/min/kg
- Cmax (in vivo; 3 mg/kg): 329 ng/mL
- Vd (in vivo; 3 mg/kg): 10.1 L/kg
- half-life (in vivo; 3 mg/kg): 54 min
- AUC0-t (Mean) [8]: 144 ng·min/mL
- AUC0-∞ (Mean) [8]: 289 ng·min/mL
- Vz (Mean) [8]: 1310.999 L/kg
- common maximal effect / target value, return to % of saline control bladder capacity (individual responses) [5]: 31 % of saline control
- common maximal effect, return to % of saline control bladder capacity (group mean data) [5]: 43 % of saline control
